Assay results: PMC8291587, “Guanidine Derivatives: How Simple Structural Modification of Histamine H3R Antagonists Has Led to the Discovery of Potent Muscarinic M2R/M4R Antagonists” (ACS Chemical Neuroscience, 2021)

Assays:
[1] = biological target: T1, hH3R (Homo sapiens, UniProt Q9Y5N1); experiment: hH3R radioligand displacement binding assay ([3H]-Nα-methylhistamine, HEK-293 cell membranes); details: for Ki: [3H]-Nα-methylhistamine, HEK-293 membranes, read-out: hH3R -log(Ki) ± sem (converted)
T1 construct: expressed in transfected cells; membrane fractions
Protocol: [^3H]-N^α-Methylhistamine was used as a radiolabeled ligand.
The radioligand displacement binding assay was performed in membrane fractions of HEK-293 cells stably expressing hH3R. Cell cultivation and membrane preparation were performed according to Kottke et al.[43] […] The total assay volume was set to 200 μL. The compounds were tested in several appropriate concentrations between 100 μM and 0.1 nM. Pipetting was partly done by Freedom Evo (Tecan). […] The membrane fraction (20 μg/well), test compounds, and radiolabeled ligand were incubated for 90 min at 25 °C while shaking. The bound radioligand was separated from free radioligand by filtration through GF/B filters pretreated with 0.3% (m/v) polyethylenimine using a cell harvester. Radioactivity was determined by liquid scintillation counting using a MicroBeta Trilux (PerkinElmer). The data were obtained in duplicates in at least three independent experiments. Nonspecific binding was subtracted from the raw data to calculate specific-binding values. The evaluation was performed with GraphPad Prism 6.1 (San Diego, CA, USA) using nonlinear regression (one-site competition with a logarithmic scale). The Ki values were calculated from the IC50 values using the Cheng–Prusoff equation.[44] The statistical calculations were performed on −log Ki. The mean values and 95% confidence intervals were transformed to nanomolar concentrations.

[2] = system: M2R/M3R; experiment: Ex vivo screening of muscarinic M2R/M3R antagonists on isolated guinea pig ileum (methacholine-induced contraction); details: methacholine as agonist
Protocol: Another group of guinea pig intestinal receptors able to regulate smooth muscle contraction is that of the muscarinic receptors, including M2R and M3R. All compounds were tested on the muscarinic receptors using the same animal model. This approach is similar to measuring histamine H1R antagonist activity. Methacholine was used as a receptor agonist, while 1,1-dimethyl-4-diphenylacetoxypiperidinium iodide (4-DAMP) was used as a reference M3R antagonist. As methacholine is not selective according to M2R and M3R, it is not possible to precisely specify which one was responsible for the effect observed on the tissue preparations. Some authors often attribute the results to the minor M3R subtype (gpM2R:M3R = 4:1 or 5:1), which is generally associated with the contractions,[38] but such an overinterpretation may be misleading, as indicated by our further hM1R-hM5R radioligand binding assay results shown in Table 2. […] These findings partially explain the influence of ADS10227 on the contractility of guinea pig ileum following electrical stimulation. […] In subsequent studies, we tried to clarify this.
Male guinea pigs, weighing 300–400 g, were euthanized by a blow to the neck. A 20–30 cm length of the distal ileum, apart from the terminal 5 cm, was rapidly removed and placed in phosphate buffer at room temperature (pH 7.4) containing (mM) NaCl (136.9), KCl (2.6), KH2PO4 (1.47), Na2HPO4 (9.58), and indomethacin (1 × 10^–6 mol/L)). The intraluminal content was rinsed, and the isolated intestine was cut into 1.5–2 cm segments. The preparations were mounted isotonically in a 20 mL organ bath filled with Tyrode’s buffer: composition (mM) NaCl (137), KCl (2.7), MgCl2·6H2O (1.0), CaCl2 (1.8), NaH2PO4·H2O (0.4), NaHCO3 (11.9), glucose (5.61), and indomethacin (3 × 10^–7 mol/L). The solution was continuously bubbled with a 95% O2:5% CO2 mixture and maintained at 37 °C under a constant load of 0.5 g (Hugo Sachs Hebel–Messvorsatz (Tl-2)/HF-modem; Hugo Sachs Elektronik, Hugstetten, Germany) connected to a pen recorder (Kipp & Zonen BD41, Delft, Holland). During an equilibration period of 40 min, Tyrode’s buffer was changed every 10 min. The first cumulative concentration–response curve was determined for methacholine (10 nM to 3 mM) at increasing concentrations spaced by 3- or 3.3-fold. The second to the fourth (or fifth) curves were measured in the presence of an increasing concentration of antagonist (incubation time 20 min). The pA2 values were calculated according to Arunlakshana and Schild.[37] Statistical analysis was carried out with the Students’ t test. In all tests, a p < 0.05 was considered statistically significant.

[3] = system: electrically stimulated guinea pig ileum; experiment: Decrease of contractility in electrically stimulated guinea pig ileum (-log EC50 determination); details: electrically stimulated guinea pig ileum; for EC50: Cavia porcellus, read-out: Decrease of contractility (-logEC50 ± sem) (converted)
Protocol: A standard ex vivo assay based on the relaxant response of histamine H3R agonists to electrically driven guinea pig ileum was used to test the influence of ADS compounds on the reduction of electrically evoked tissue contraction. […] The −log EC50 value for RAMH and ADS compounds were evaluated. […] Following this, we decided to evaluate the ADS series as potential M2R/M3R ligands on the isolated guinea pig ileum.
Male guinea pigs, weighing 300–400 g, were euthanized by a blow to the neck. A 20–30 cm length of the distal ileum, apart from the terminal 5 cm, was rapidly removed and placed in phosphate buffer at room temperature (pH 7.4) containing (mM) NaCl (136.9), KCl (2.6), KH2PO4 (1.47), Na2HPO4 (9.58), and indomethacin (1 × 10^–6 mol/L)). The intraluminal content was rinsed, and the isolated intestine was cut into 1.5–2 cm segments. The preparations were mounted between two platinum electrodes isotonically in a 20 mL organ bath filled with Krebs buffer: composition (mM) NaCl (118), KCl (5.6), MgSO4 (1.18), CaCl2 (2.5), NaH2PO4·H2O (1.28), NaHCO3 (25), glucose (5.55), and indomethacin (3 × 10^–7 mol/L). The solution was continuously bubbled with a 95% O2:5% CO2 mixture and maintained at 37 °C under a constant load of 1.0 g (Hugo Sachs Hebel–Messvorsatz (Tl-2)/HF-modem; Hugo Sachs Elektronik, Hugstetten, Germany) connected to a pen recorder (Kipp & Zonen BD41, Delft, Holland). During an equilibration period of 60 min, Krebs buffer was changed every 10 min. Following this, the preparations were continuously stimulated at 15–20 V, at a frequency of 0.1 Hz for a duration of 0.5 ms, with rectangular-wave electrical pulses (Grass Stimulator S-88; Grass Instruments Co., Quincy, Massachusetts, USA). […] Cumulative concentration–response curve was determined to RAMH or tested agonist (10 nM to 10 mM) at increasing concentrations spaced by 3- or 3.3-fold. The agonist potency is expressed as pD2 value (−log EC50) ± sem.

[4] = biological target: T2, H1R (Cavia porcellus, UniProt P31389); experiment: Ex vivo screening of histamine H1R antagonists on guinea pig ileum, variant with 0.05 μM atropine; details: isolated guinea pig ileum, histamine as agonist, read-out: H1R+atropine pA2 gpi ± sem (converted)
T2 construct: from tissue; host or cells: isolated distal ileum of male guinea pigs
Protocol: (§1) The second histamine receptor located in the guinea pig ileum is H1R. […] The H1R antagonistic effect was measured on isolated guinea pig ileum stimulated to contract by histamine.[37] To assess and exclude the influence of the ADS compounds on muscarinic receptors, two test variations were used: one with the addition of 0.05 μM atropine and one without.
(§2) Male guinea pigs, weighing 300–400 g, were euthanized by a blow to the neck. A 20–30 cm length of the distal ileum, apart from the terminal 5 cm, was rapidly removed and placed in phosphate buffer at room temperature (pH 7.4) containing (mM) NaCl (136.9), KCl (2.6), KH2PO4 (1.47), Na2HPO4 (9.58), and indomethacin (1 × 10^–6 mol/L). The intraluminal content was rinsed, and the isolated intestine was cut into 1.5–2 cm segments. The preparations were mounted isotonically in a 20 mL organ bath filled with Krebs buffer: composition (mM) NaCl (118), KCl (5.6), MgSO4 (1.18), CaCl2 (2.5), NaH2PO4·H2O (1.28), NaHCO3 (25), glucose (5.55), and indomethacin (3 × 10^–7 mol/L). […] The solution was continuously bubbled with a 95% O2:5% CO2 mixture and maintained at 37 °C under a constant load of 0.5 g (Hugo Sachs Hebel–Messvorsatz (Tl-2)/HF-modem; Hugo Sachs Elektronik, Hugstetten, Germany) connected to a pen recorder (Kipp & Zonen BD41, Delft, Holland). During an equilibration period of 40 min, Krebs buffer was changed every 10 min. The first cumulative concentration–response curve was determined for histamine (10 nM to 10 mM) at increasing concentrations spaced by 3- or 3.3-fold. The second to the fourth (or fifth) curves were measured in the presence of an increasing concentrations of antagonist (incubation time 10 min). The pA2 values were calculated according to Arunlakshana and Schild.[37] Statistical analysis was carried out with the Students’ t test. In all tests, a p < 0.05 was considered statistically significant.

[5] = biological target: T2, H1R; experiment: Ex vivo screening of histamine H1R antagonists on guinea pig ileum, variant without atropine; details: isolated guinea pig ileum, histamine as agonist, read-out: H1R pA2 gpi ± sem (converted)
Protocol: as §1, §2

[6] = system: M2R; design: method as in PMID 11421251; details: cited from earlier work

T1 sequence (Q9Y5N1 whole entry): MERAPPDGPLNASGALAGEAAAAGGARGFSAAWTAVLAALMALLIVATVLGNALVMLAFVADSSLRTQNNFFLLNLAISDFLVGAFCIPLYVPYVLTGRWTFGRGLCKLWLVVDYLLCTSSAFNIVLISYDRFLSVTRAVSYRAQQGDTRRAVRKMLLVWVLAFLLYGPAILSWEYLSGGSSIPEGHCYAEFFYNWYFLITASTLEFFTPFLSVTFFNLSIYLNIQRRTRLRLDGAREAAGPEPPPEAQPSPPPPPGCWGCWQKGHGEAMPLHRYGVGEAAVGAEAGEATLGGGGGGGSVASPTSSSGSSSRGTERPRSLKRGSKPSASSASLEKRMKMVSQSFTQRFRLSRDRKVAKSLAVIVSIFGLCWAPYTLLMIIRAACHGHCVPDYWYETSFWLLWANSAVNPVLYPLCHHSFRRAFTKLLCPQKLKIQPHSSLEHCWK
T2 sequence (P31389 whole entry): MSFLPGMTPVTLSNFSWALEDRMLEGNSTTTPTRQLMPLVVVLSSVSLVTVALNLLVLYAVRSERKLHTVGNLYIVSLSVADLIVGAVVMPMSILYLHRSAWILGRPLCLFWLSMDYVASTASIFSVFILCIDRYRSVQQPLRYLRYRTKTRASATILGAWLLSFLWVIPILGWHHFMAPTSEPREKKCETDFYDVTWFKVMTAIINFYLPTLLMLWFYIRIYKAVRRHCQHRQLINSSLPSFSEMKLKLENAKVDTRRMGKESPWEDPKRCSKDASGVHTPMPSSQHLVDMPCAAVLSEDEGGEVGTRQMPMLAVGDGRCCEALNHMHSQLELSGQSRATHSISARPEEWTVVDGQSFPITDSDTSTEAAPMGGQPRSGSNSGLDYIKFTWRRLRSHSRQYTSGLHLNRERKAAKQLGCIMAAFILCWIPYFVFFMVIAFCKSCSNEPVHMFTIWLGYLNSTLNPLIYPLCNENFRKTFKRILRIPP

Compound | Ki [1] [nM] | EC50 [3] [nM] | Kb [4] [nM] | Kb [5] [nM] | Kd ([1]; radioligand used at 2 nM) [nM] | M2R/M3R pA2 gpi ± sem [2] | effective dose in the rodent cognition model lower than that known to increase heart rate in rats [6] [fold] | Decrease of contractility (-logEC50 ± sem) [3] | intrinsic activity (maximal response as fraction of maximal response of the system) ([3]; from concentration–response curves)
CNCCc1cnc[nH]1 [[^3H]N^α-methylhistamine, reference compound] |  |  |  |  | 3.08 |  |  |  | 
C[N+]1(C)CCC(OC(=O)C(c2ccccc2)c2ccccc2)CC1.[I-] [4-DAMP, 1,1-dimethyl-4-diphenylacetoxypiperidinium iodide, reference compound] |  |  |  |  |  | 9.05 ±0.11 |  |  | 
COc1ccc(S(=O)(=O)c2ccc(C3(C4CCN(C5CCN(C(=O)c6cccc(C)c6N)CC5)CC4)OCCO3)cc2)cc1 [SCH-217443] |  |  |  |  |  |  | 30 |  | 
C[C@@H](N)Cc1c[nH]cn1 [RAMH, (R)(−)-α-methylhistamine, reference compound] |  |  |  |  |  |  |  | 7.70±0.07 | 0.82

Continued, in another order:

Ki [1] [nM] | EC50 [3] [nM] | Kb [4] [nM] | Kb [5] [nM] | Compound | Kd ([1]; radioligand used at 2 nM) [nM] | M2R/M3R pA2 gpi ± sem [2] | effective dose in the rodent cognition model lower than that known to increase heart rate in rats [6] [fold] | Decrease of contractility (-logEC50 ± sem) [3] | intrinsic activity (maximal response as fraction of maximal response of the system) ([3]; from concentration–response curves)
1620 | 724 | 120 | 75.9 | [H]/N=C(\N)N(CCCCN1CCN(CC2CCC(COc3ccccc3)CC2)CC1)Cc1ccc(C(F)(F)F)cc1 (stereo not drawn) [ADS10207] |  | 5.68±0.15 |  |  | 
1660 | 2290 | 151 | 182 | N=C(N)N(CCCCN1CCN(Cc2ccc(COc3ccccc3)cc2)CC1)Cc1ccc(C(F)(F)F)cc1 [ADS10183] |  | 5.83±0.22 |  |  | 
1660 | 575 | 97.7 | 60.3 | N=C(N)N(CCCCN1CCN(Cc2ccc(Oc3ccccc3)cc2)CC1)Cc1ccc(C(F)(F)F)cc1 [ADS10210] |  | 5.83±0.14 |  |  | 
2040 | 832 | 166 | 145 | N=C(N)N(CCCCN1CCN(C[C@H]2CC[C@H](COc3ccccc3)CC2)CC1)Cc1ccccc1 [ADS10283] |  | 6.02±0.07 |  |  | 
1350 | 3090 | 100 | 105 | N=C(N)N(CCCCN1CCN(Cc2ccc(COc3ccccc3)cc2)CC1)Cc1ccccc1 [ADS10185] |  | 5.77±0.15 |  |  | 
